From PMC4004800, “Preclinical evaluation of marketed sodium channel blockers in a rat model of myotonia discloses promising antimyotonic drugs” (Experimental Neurology, 2014)
Read-outs that look alike come from different tables or passages of the source.

Target: T1, hNav1.4 (human skeletal muscle sodium channel) (Homo sapiens, UniProt P35499)
T1 construct: gene SCN4A; alpha subunit permanently transfected in HEK293 cells; no beta subunit mentioned
Assay: whole-cell patch clamp, sodium current in HEK293
Assay type: cell-based
Conditions: read-out: IC50 (μM) / 50 Hz, hp - 90 mV
Description: whole-cell patch clamp, sodium current in HEK293 on hNav1.4 (human skeletal muscle sodium channel)

T1 sequence (P35499 whole entry): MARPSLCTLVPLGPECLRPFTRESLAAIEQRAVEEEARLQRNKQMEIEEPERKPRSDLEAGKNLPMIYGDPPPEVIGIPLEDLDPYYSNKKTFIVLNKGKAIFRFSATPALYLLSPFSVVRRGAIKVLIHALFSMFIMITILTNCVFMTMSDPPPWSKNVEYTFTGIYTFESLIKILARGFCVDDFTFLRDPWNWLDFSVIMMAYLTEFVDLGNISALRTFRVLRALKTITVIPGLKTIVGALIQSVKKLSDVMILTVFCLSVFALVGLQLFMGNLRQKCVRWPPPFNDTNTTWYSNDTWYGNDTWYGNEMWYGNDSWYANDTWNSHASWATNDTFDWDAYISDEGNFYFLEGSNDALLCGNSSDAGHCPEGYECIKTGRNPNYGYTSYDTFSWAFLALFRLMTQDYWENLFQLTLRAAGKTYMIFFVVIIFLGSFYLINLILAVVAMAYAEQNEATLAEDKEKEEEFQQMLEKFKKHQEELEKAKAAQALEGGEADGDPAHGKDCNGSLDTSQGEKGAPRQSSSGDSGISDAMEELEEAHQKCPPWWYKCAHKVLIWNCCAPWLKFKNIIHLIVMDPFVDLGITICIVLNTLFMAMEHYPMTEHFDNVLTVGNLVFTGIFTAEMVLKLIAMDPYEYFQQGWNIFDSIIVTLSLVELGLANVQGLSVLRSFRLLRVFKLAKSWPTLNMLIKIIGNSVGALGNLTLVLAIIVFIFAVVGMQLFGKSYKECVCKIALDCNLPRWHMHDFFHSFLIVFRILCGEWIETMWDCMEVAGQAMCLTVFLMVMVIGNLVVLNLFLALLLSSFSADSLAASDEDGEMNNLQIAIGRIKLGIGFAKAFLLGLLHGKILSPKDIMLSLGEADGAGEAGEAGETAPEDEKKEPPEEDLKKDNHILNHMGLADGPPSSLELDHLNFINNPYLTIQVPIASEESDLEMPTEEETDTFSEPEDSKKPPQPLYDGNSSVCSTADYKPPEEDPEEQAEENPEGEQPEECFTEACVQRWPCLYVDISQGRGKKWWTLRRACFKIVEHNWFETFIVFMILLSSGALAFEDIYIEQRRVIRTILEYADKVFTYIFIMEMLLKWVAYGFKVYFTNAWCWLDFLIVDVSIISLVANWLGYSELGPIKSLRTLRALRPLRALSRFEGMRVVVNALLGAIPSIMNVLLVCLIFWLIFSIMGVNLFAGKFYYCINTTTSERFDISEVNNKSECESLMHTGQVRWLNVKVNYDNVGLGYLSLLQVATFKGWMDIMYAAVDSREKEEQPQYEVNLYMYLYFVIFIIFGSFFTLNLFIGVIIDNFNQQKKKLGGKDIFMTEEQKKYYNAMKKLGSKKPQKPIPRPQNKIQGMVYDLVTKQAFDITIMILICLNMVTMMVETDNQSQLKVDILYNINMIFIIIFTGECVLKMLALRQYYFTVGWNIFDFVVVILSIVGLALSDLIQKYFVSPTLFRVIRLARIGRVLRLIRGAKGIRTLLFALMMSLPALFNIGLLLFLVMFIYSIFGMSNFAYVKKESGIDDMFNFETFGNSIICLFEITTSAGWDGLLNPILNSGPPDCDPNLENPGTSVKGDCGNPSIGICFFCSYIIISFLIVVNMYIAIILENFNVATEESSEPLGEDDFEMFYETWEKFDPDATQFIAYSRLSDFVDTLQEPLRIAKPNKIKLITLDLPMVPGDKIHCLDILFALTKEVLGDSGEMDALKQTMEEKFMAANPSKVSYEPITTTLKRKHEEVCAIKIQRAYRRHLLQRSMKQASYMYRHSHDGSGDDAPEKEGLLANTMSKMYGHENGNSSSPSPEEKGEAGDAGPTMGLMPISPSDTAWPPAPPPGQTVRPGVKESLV

| Molecule | IC50 | IC50 (holding potential -90 mV, 5 ms pulses to -30 mV at 50 Hz (myotonia-like), tonic + use-dependent block, read by eye from curve, 20-22 °C, pH 7.4) |
| --- | --- | --- |
| NC(=O)N1c2ccccc2C=Cc2ccccc21 [Carbamazepine] | ~100 µM |  |
| Nc1nc2ccc(OC(F)(F)F)cc2s1 [Riluzole] | ~0.9 µM |  |
| NC(=O)N1c2ccccc2C2OC2c2ccccc21 (stereo not shown) [epo-CBZ] | ~70 µM |  |

The remaining lines, values ahead:

| IC50 | IC50 (holding potential -90 mV, 5 ms pulses to -30 mV at 50 Hz (myotonia-like), tonic + use-dependent block, read by eye from curve, 20-22 °C, pH 7.4) | Molecule |
| --- | --- | --- |
| ~4 µM |  | O=C(NCC1CCCCN1)c1cc(OCC(F)(F)F)ccc1OCC(F)(F)F (stereo not shown) [Flecainide] |
| ~20 µM |  | Cc1cccc(C)c1OCC(C)N (stereo not shown) [Mexiletine] |
| ~1.5 µM |  | CCCNCC(O)COc1ccccc1C(=O)CCc1ccccc1 (stereo not shown) [Propafenone] |
|  | ~0.3 µM | Lubeluzole |
